Reference: patent US20080319042A1, “Compositions and methods for treatment of liver disease” (priority 2007, published 2008)
Several values for one entry are separate records, joined by “and”; a condition that tells them apart may be missing. Equal values may be shown once.

Legend:
HBeAg = test: Anti-HBSAg Assay (Procedure B), HBeAg; format: cell-based, hepatitis B virus
HBsAg = test: Anti-HBSAg Assay (Procedure B), HBsAg; format: cell-based, hepatitis B virus
Procedure: The HBV-producing human hepatoblastoma cell line, Hep G2 2.2.15 is maintained in DMEM supplemented with 10% fetal bovine serum (FBS), 2 mM glutamine, 100 units/ml penicillin, 100 μg/ml streptomycin at 37° C. under 5% CO2 in air.
Samples were dissolved in DMSO at the concentration of 20 mg/mL, then further diluted with DMEM medium to the appropriate concentration.
Hep G2 2.2.15 cells (120 μl) were seeded onto 96-well plates at a concentration of 2×10^5 cells/mL. The cells incubated for 72 h in the medium without G418, after which the test samples (120 μl) were added. Five 3-fold serial dilutions of samples were tested. PBS and 3TC (lamivudine) were included as the negative and positive controls, respectively. The treated cells were incubated at 37° C. for 9 days; with the medium with sample being changed each 3 days, after which the culture supernatant was removed for analysis of both the hepatitis B surface antigen (HBsAg) production and hepatitis B DNA expression.
The HBsAg released into the culture medium in the presence or absence of test material was assayed using the kit manufactured by Shanghai Siic Kehua Biotech Co., Ltd (Shanghai, China). This enzyme immunoassay is based on the capture of HBsAg on monoclonal antibody-coated plates. Four- and twelve-fold dilutions of all culture supernatants collected were assayed in triplicate wells of the kit plate. The percentage inhibition of HBsAg secretion in the presence of the compound was calculated against the negative control (PBS). The IC50 values, the dose that inhibited viruses by 50%, were calculated using non-linear regression analysis (percent survival versus concentration).

HBV DNA = test: Anti-HBV DNA Assay; format: cell-based, hepatitis B virus; settings: for HBV DNA copies/ml: replicates, listed as HP-S4
HCV/HIV pseudovirions = test: microbe, parasite or virus in culture; format: cell-based, hepatitis C virus; settings: 100 μg/mL; FIG. 1

OCC1=C[C@@H](O)[C@@H]2C=CO[C@@H](O)[C@H]12 [aucubin aglycone]
HBeAg Ave (HBeAg; 6.25 μg/mL): 1.299
HBeAg Inhibition % (HBeAg; 6.25 μg/mL): 0%
HBeAg OD1 (HBeAg; 6.25 μg/mL): 1.327
HBeAg OD2 (HBeAg; 6.25 μg/mL): 1.265
HBeAg OD3 (HBeAg; 6.25 μg/mL): 1.304
HBeAg Ave (HBeAg; 12.5 μg/mL): 1.393
HBeAg Inhibition % (HBeAg; 12.5 μg/mL): 0%
HBeAg OD1 (HBeAg; 12.5 μg/mL): 1.561
HBeAg OD2 (HBeAg; 12.5 μg/mL): 1.316
HBeAg OD3 (HBeAg; 12.5 μg/mL): 1.303
HBeAg Ave (HBeAg; 25 μg/mL): 1.334
HBeAg Inhibition % (HBeAg; 25 μg/mL): 0%
HBeAg OD1 (HBeAg; 25 μg/mL): 1.375
HBeAg OD2 (HBeAg; 25 μg/mL): 1.335
HBeAg OD3 (HBeAg; 25 μg/mL): 1.293
HBeAg Ave (HBeAg; 50 μg/mL): 1.226
HBeAg Inhibition % (HBeAg; 50 μg/mL): 0%
HBeAg OD1 (HBeAg; 50 μg/mL): 1.295
HBeAg OD2 (HBeAg; 50 μg/mL): 1.259
HBeAg OD3 (HBeAg; 50 μg/mL): 1.123
HBeAg Ave (HBeAg; 100 μg/mL): 1.329
HBeAg Inhibition % (HBeAg; 100 μg/mL): 0%
HBeAg OD1 (HBeAg; 100 μg/mL): 1.162
HBeAg OD2 (HBeAg; 100 μg/mL): 1.391
HBeAg OD3 (HBeAg; 100 μg/mL): 1.435
HBsAg Ave. (HBsAg; 6.25 μg/mL): 1.407
HBsAg Inhibition % (HBsAg; 6.25 μg/mL): 0%
HBsAg OD1 (HBsAg; 6.25 μg/mL): 1.392
HBsAg OD2 (HBsAg; 6.25 μg/mL): 1.375
HBsAg OD3 (HBsAg; 6.25 μg/mL): 1.454
HBsAg Ave. (HBsAg; 12.5 μg/mL): 1.323
HBsAg Inhibition % (HBsAg; 12.5 μg/mL): 4.5%
HBsAg OD1 (HBsAg; 12.5 μg/mL): 1.370
HBsAg OD2 (HBsAg; 12.5 μg/mL): 1.372
HBsAg OD3 (HBsAg; 12.5 μg/mL): 1.227
HBsAg Ave. (HBsAg; 25 μg/mL): 1.300
HBsAg Inhibition % (HBsAg; 25 μg/mL): 6.1%
HBsAg OD1 (HBsAg; 25 μg/mL): 1.608
HBsAg OD2 (HBsAg; 25 μg/mL): 1.116
HBsAg OD3 (HBsAg; 25 μg/mL): 1.175
HBsAg Ave. (HBsAg; 50 μg/mL): 0.845
HBsAg Inhibition % (HBsAg; 50 μg/mL): 37.9%
HBsAg OD1 (HBsAg; 50 μg/mL): 0.935
HBsAg OD2 (HBsAg; 50 μg/mL): 0.926
HBsAg OD3 (HBsAg; 50 μg/mL): 0.675
HBsAg Ave. (HBsAg; 100 μg/mL): 0.656
HBsAg Inhibition % (HBsAg; 100 μg/mL): 52.6%
HBsAg OD1 (HBsAg; 100 μg/mL): 0.667
HBsAg OD2 (HBsAg; 100 μg/mL): 0.641
HBsAg OD3 (HBsAg; 100 μg/mL): 0.66
HBV DNA Average (HBV DNA; 6.25 μg/ml): 1.10 × 10^6 copies/ml
HBV DNA Inhibit (HBV DNA; 6.25 μg/ml): 5.99%
HBV DNA copies/ml (HBV DNA; 6.25 μg/ml): 1.26E+06 copies/ml and 9.83E+05 copies/ml and 1.06E+06 copies/ml
HBV DNA Average (HBV DNA; 12.5 μg/ml): 9.52 × 10^5 copies/ml
HBV DNA Inhibit (HBV DNA; 12.5 μg/ml): 8.60%
HBV DNA copies/ml (HBV DNA; 12.5 μg/ml): 1.16E+06 copies/ml and 9.17E+05 copies/ml and 7.78E+05 copies/ml
HBV DNA Average (HBV DNA; 25 μg/ml): 1.01 × 10^6 copies/ml
HBV DNA Inhibit (HBV DNA; 25 μg/ml): 13.70%
HBV DNA copies/ml (HBV DNA; 25 μg/ml): 1.02E+06 copies/ml and 9.74E+05 copies/ml and 1.04E+06 copies/ml
HBV DNA Average (HBV DNA; 50 μg/ml): 9.79 × 10^5 copies/ml
HBV DNA Inhibit (HBV DNA; 50 μg/ml): 16.30%
HBV DNA copies/ml (HBV DNA; 50 μg/ml): 1.05E+06 copies/ml and 9.27E+05 copies/ml and 9.59E+05 copies/ml
HBV DNA Average (HBV DNA; 100 μg/ml): 8.43 × 10^5 copies/ml
HBV DNA Inhibit (HBV DNA; 100 μg/ml): 27.90%
HBV DNA copies/ml (HBV DNA; 100 μg/ml): 7.90E+05 copies/ml and 7.94E+05 copies/ml and 9.44E+05 copies/ml
inhibition of HCV/HIV entry (HCV/HIV pseudovirions): approximately 80%
